The text below walks through data of US8101792B2, “Compounds isolated from Antrodia cinnamomea and use thereof” (Simpson Biotech Co., Ltd., priority 2007, dated 2012).

Read-outs that look alike come from different tables or passages of the source.

The nature of data set [1]: Conversion of metabolites in bile samples diluted with water and incubated at 37° C. The settings on record: bile diluted by same volume water, 37° C. bath for 12 h. Format: physicochemical.
Description: (§1) Thawed urine and bile samples (0.5 ml) dissolved in 3 volumes of acetonitrile, and then centrifuged at 8000×g for 15 min. The supernatant was passed through a 0.45 μm Millipore syringe filter (Nihon Millipore, Tokyo, Japan) for LC/MS-MS analysis. […] After treating the bile sample as described above, the amount of M1 was calculated by PAD-HPLC.
Another data set concerns LLC cells. The settings on record: cited from earlier work.
Another data set is described as follows: in vivo. The settings on record: male, Wistar, rat.
Data set [2] concerns rat (RIB) or human (HIB) intestinal bacteria. Description: Metabolism of Antrodin C and metabolites by intestinal bacteria in vitro. Type of data set: in vitro ADME. Here is the method:
Mixtures of rat (RIB) or human (HIB) intestinal bacteria (5 g each) prepared as described (Xie L H, et al. 2003 Biol Pharm Bull 51: 378-384), together with Antrodin C (5 mg) dissolved in Tween 20 (0.5 ml), M1 (5 mg) dissolved in water (1.0 ml) or rat bile samples (10 ml) with metabolites M2-M4, which were collected after oral administration of Antrodin C, were added to GAM broth (50 ml), and anaerobically incubated at 37° C. for 3 d. The incubation mixture was extracted with 3 volumes of acetonitrile, and then passed through a 0.45 μm filter. […] Moreover, the metabolites (M2-M4) in bile samples, which were collected after oral administration of Antrodin C in rats, could absolutely transferred to M1 after 30 min incubation.

Data set [3] in a line: Identification of metabolites in rat feces, bile, plasma and urine by LC/MS-MS after administration of Antrodin C. Type of data set: in vivo. Here is the method:
The metabolites in feces, bile and plasma were analyzed by LC/MS-MS. The LC/MS-MS equipment comprised a column containing TSK gel ODS-80 Ts (particle size, 5 μm; 4.6×150 mm i.d., Tosoh Co., Tokyo, Japan). Samples were eluted through the column with 0.1% AcOH and acetonitrile (35:65) at a flow rate of 1 ml/min at 30° C. The standard negative ion mode was selected under the following conditions: full scan range, 50-800 m/z; scan resolution, 13000 m/z/sec; nebulizer, 50.0 psi; dry gas, 10.0 l/min; dry temperature, 360° C. Full scanning in the region of m/z 50 to 600 assigned several peaks to Antrodin C and the metabolites in the […] when compared with those of blank samples (FIG. 3). […] Comparing to standard materials and synthesized compounds, the peak in the MS profile at m/z 328 [M-H]^− with retention time (tR)=8.2 min was derived from Antrodin C (MW 329), and M1 (m/z 331 [M-H]^−, tR=4.4 min) was dicarboxylic acid by hydrolysis of Antrodin C; M2 and M3 (m/z 345 [M-H]^−, tR=7.7 and 8.4 min), which were 14 larger than those of M1, were two kinds of monomethyl esters of M1; M4 (m/z 313 [M-H]^−, tR=21.6 min) was Antrodin A and M5 (m/z 312 [M-H]^−, tR=11.5 min) was Antrodin B. The structures of Antrodin C and its metabolites were shown in FIG. 5.

Data set [4] in a line: Pharmacokinetics of M1 in rat bile after P.O. and I.V. administration of Antrodin C (PAD-HPLC). Conditions: for Accumulated excretion ratio: rat bile.
Description: (§2) Male Wistar rats (9 weeks old) purchased from SLC Co. (Hamamastu, Japan), were fed with standard laboratory chow for one week, fasted overnight and given free access to water before drug administration. […] The animals were light anesthetized with diethyl ether during surgical procedures. Bile samples (n=5) was collected by cannulating a polyethylene tube (PE-10) into the rat bile duct at intervals of 0, 0.25, 0.5, 1, 2, 4, 8, 12, 24, 36 and 48 h after oral (50 mg/kg) and intravenous (10 mg/kg) administration of Antrodin C. […] The blood samples were centrifuged at 8000×g for 15 min to separate the plasma, and then all samples were stored at −20° C. for later analysis.
as §1
(§3) The concentration-time data in rat bile (n=5) were computer fitted using a program of Pharmacokineitics 3p97 edited by the Mathematics Pharmacological Committee, Chinese Pharmacological Society. The following pharmacokinetic parameters were obtained: half-time of absorption phase (t1/2 (Kα)) and half-time of elimination phase (t1/2 (Kβ)) in the bile samples after oral administration of Antrodin C at the dose of 50 mg/kg. The area under the concentration-time curve (AUC(i.v.) and AUC(p.o.)) was calculated by the statistical moment method of non-compartmental pharmacokinetic analysis. And then clearance (Clm, b) and absolute bioavailability (Fm, b) were calculated by the equations as following: Clm, b (ml/h·kg)=Dose(i.v.)/AUC(i.v.) and Fm, b (%)=AUC(p.o.)·Dose(i.v.)/[AUC(i.v.)·Dose(p.o.)]. Data were expressed mean and standard deviation (S.D.) for each group.
Data set [5] has as its system hepatitis model induced by LPS. Description: Hepatitis model induced by LPS. Conditions: in vivo.

Description for in vivo: as §2, §1, §3

`CC(C)=CCOc1ccc(C2=C(CC(C)C)C(=O)OC2=O)cc1` [M4, Antrodin A]: the “Conversion in diluted bile” value in data set [1] is listed as “thoroughly converted to M1”.

Consider `CC(C)=CCOc1ccc(C2=C(CC(C)C)C(=O)NC2=O)cc1` [M5, Antrodin B], for which, in the data set on LLC cells, the “Cytotoxic activity against LLC cells” value is “confirmed”.

In the case of `CC(C)=CCOc1ccc(/C(C(=O)O)=C(\CC(C)C)C(=O)O)cc1` [M1, (2Z)-2-isobutyl-3-{4-[(3-methylbut-2-en-1-yl)oxy]-phenyl}but-2-enedioic acid], in “in vivo”, the bioavailability – broadly, the share of a dose that reaches the circulation, judged against a reference dose that is usually intravenous – was found to be 19.4%. Besides, the AUC (commonly the area under the concentration-time curve, a measure of exposure) in “in vivo” (iv, 10 mg/kg) worked out at 1680 µg·h/mL; in the data set “in vivo” (po, 50 mg/kg), 1610 µg·h/mL. Besides, the clearance (usually the rate of elimination divided by the concentration) in “in vivo” (iv, 10 mg/kg) is 5.96 mL/h/kg. For the same molecule, the half-life (commonly the time in which the quantity being followed falls by half) in “in vivo” (po, 50 mg/kg, t1/2 (kα), half-time of absorption phase) is 0.95 h; in “in vivo” (po, 50 mg/kg, t1/2 (kβ), half-time of elimination phase), 12.6 h. Besides, in data set [2] (GAM broth, anaerobic incubation at 37° C. for 3 d), the “Metabolism by intestinal bacteria” value is on record as “not metabolized”.

Take `COC(=O)/C(CC(C)C)=C(\C(=O)O)c1ccc(OCC=C(C)C)cc1` [M3, (2Z)-2-isobutyl-3-{4-[(3-methylbut-2-en-1-yl)oxy]phenyl}but-2-enedioic acid 1-methyl ester]: the “Conversion in diluted bile” value in data set [1] is recorded as “thoroughly converted to M1”.

Take `COC(=O)/C(=C(/CC(C)C)C(=O)O)c1ccc(OCC=C(C)C)cc1` [M2, (2Z)-2-isobutyl-3-{4-[(3-methylbut-2-en-1-yl)oxy]phenyl}but-2-enedioic acid 4-methyl ester]: the “Conversion in diluted bile” value in data set [1] is “thoroughly converted to M1”.

With `CC(C)=CCOc1ccc(C2=C(CC(C)C)C(=O)N(O)C2=O)cc1` [Antrodin C], in data set [3] (rat feces after administration of Antrodin C), the “Metabolites found in feces” value is “M1-M3, M5 with original Antrodin C”. Moreover, in data set [3] (rat plasma after administration of Antrodin C), the “Metabolites found in plasma” value is on record as “M1 with another unknown peak”. The “Metabolites found in urine” value in data set [3] (rat urine after administration of Antrodin C) is reported as “neither metabolite nor Antrodin C”. The Accumulated excretion ratio was determined as 56.85±13.40 in data set [4] (I.V. 10 mg/kg Antrodin C) and 5.46±1.62% in data set [4] (P.O. 50 mg/kg Antrodin C). In addition, the Main excretion pathway result in data set [4] (rats) is on record as “bile-feces pathway”. Moreover, in the data set on LLC cells, the “Cytotoxic activity against LLC cells” value is listed as “confirmed”. The “Metabolism by intestinal bacteria” value in data set [2] is reported as “converted to M5”. Also, in data set [5], the “Effect against hepatitis model induced by LPS” value is listed as “protective effect”.
